Data on 33 compounds can be found in patent publication US6472391B2, “Nitrogen-containing heterocyclic compounds” (Millennium Pharmaceuticals, Inc., priority 1996, dated 2002).

One data set deals with T1, human β-PDGF receptor (Homo sapiens, UniProt P09619).
T1 construct: expressed in transfected cells; host or cells: Chinese hamster ovary cells (CHO)
The experiment in a line: Inhibitory effect on phosphorylation of PDGF receptor. Type of data set: cell-based. The following applies: CHO cells expressing human β-PDGF receptor. The method, then: Test Example 1 Inhibitory Effect on Phosphorylation of PDGF Receptor
The test was carried out according to the method described in the literature [Dah-Shuhn et al., J. Biol. Chem., 266, 413-418 (1991)], using Chinese hamster ovary cells (CHO) wherein human β-PDGF receptor cDNA was introduced and expressed.

T1 sequence (P09619 33-1106): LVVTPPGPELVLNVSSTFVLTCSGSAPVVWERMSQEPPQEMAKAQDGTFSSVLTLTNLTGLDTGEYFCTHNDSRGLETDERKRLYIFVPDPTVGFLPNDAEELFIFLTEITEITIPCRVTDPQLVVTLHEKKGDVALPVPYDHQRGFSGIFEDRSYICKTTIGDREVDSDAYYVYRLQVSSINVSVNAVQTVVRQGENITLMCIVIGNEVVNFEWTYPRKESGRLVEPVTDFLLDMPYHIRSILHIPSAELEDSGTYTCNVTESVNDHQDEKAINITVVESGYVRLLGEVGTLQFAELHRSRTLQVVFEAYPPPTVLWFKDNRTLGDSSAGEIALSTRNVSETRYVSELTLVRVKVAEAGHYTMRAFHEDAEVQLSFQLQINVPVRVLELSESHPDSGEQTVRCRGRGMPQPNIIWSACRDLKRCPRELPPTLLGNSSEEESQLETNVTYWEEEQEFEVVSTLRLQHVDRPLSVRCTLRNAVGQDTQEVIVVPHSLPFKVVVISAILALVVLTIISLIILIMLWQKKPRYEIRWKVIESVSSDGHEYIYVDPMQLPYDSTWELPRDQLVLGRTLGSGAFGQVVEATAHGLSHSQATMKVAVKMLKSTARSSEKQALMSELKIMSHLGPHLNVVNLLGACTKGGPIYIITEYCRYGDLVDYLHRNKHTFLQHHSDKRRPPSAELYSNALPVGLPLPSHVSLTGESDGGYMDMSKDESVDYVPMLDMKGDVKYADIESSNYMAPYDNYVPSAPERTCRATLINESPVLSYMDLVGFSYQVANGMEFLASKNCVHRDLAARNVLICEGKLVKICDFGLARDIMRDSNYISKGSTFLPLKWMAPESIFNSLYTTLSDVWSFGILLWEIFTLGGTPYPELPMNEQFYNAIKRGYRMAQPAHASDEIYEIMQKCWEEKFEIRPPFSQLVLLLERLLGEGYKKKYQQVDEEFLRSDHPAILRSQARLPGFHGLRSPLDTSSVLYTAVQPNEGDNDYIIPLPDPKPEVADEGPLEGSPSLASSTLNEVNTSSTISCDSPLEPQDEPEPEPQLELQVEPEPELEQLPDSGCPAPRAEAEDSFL

As a reminder, the IC50 is the midpoint of a concentration-inhibition curve. The melting point is the temperature of the solid-liquid transition. Compound `CCOc1cc2ncnc(N3CCN(C(=O)Nc4ccc([N+](=O)[O-])cc4)CC3)c2cc1OCC` [Compound 105, 4-(6,7-Diethoxy-4-quinazolinyl)-N-(4-nitrophenyl)-1-piperazinecarboxamide] showed a melting point of 120 to 121 °C. In addition, on human β-PDGF receptor, the IC50 worked out at 440 nM.
On the same counts, the results for `COc1cc2ncnc(N3CCN(C(=S)Nc4ccc5c(c4)CCC5)CC3)c2cc1OC` [Compound 9, 4-(6,7-Dimethoxy-4-quinazolinyl)-N-(5-indanyl)-1-piperazinethiocarboxamide] are 207 to 210 °C and 670 nM.
On the same counts, the results for `COc1cc2ncnc(N3C[C@@H](C)N(C(=S)NCc4ccccc4)[C@@H](C)C3)c2cc1OC` [Compound 433, N-Benzyl-4-(6,7-dimethoxy-4-quinazolinyl)-(cis-2,6-dimethyl)-1-piperazinethiocarboxamide] are 165 to 166 °C and 380 nM.
On the same counts, the results for `COc1cc2ncnc(N3CCN(C(=S)NCCCc4ccccc4)CC3)c2cc1OC` [Compound 135, 4-(6,7-Dimethoxy-4-quinazolinyl)-N-(3-phenylpropyl)-1-piperazinethiocarboxamide] are 147 to 148 °C and 460 nM.
`COc1cc2ncnc(N3CCN(C(=S)Nc4cccc(C(C)=O)c4)CC3)c2cc1OC` [Compound 241, N-(3-Acetylphenyl)-4-(6,7-dimethoxy-4-quinazolinyl)-1-piperazinethiocarboxamide] showed a melting point of 192 to 193 °C. The same compound yielded a half-maximal inhibitory concentration (IC50) on human β-PDGF receptor of 400 nM.
On the same counts, the results for `COc1cc2ncnc(N3CCN(C(=O)Nc4ccoc4)CC3)c2cc1OC` [Compound 255, 4-(6,7-Dimethoxy-4-quinazolinyl)-N-(3-furyl)-1-piperazinecarboxamide] are 213 to 215 °C and 660 nM.
On the same counts, the results for `COc1cc2ncnc(N3CCN(C(=O)Nc4ccc(Cl)c(Cl)c4)CC3)c2cc1OC` [Compound 54, N-(3,4-Dichlorophenyl)-4-(6,7-dimethoxy-4-quinazolinyl)-1-piperazinecarboxamide] are 221 to 222 °C and 710 nM.
On the same counts, the results for `COc1cc2ncnc(N3CCN(C(=S)Nc4ccc(S(=O)(=O)N5CCCCC5)cc4)CC3)c2cc1OC` [Compound 254, 4-(6,7-Dimethoxy-4-quinazolinyl)-N-(4-piperidinosulfonylphenyl)-1-piperazinethiocarboxamide] are 149 to 150 °C and 460 nM.
In the case of `COc1cc2ncnc(N3CCN(C(=S)NCc4cccnc4)CC3)c2cc1OC` [Compound 98, 4-(6,7-Dimethoxy-4-quinazolinyl)-N-(3-picolyl)-1-piperazinethiocarboxamide], the melting point is 104 to 106 °C. Moreover, the IC50 at human β-PDGF receptor stood at 220 nM.
On the same counts, the results for `Cc1ccc2c(N3CCN(C(=O)Nc4ccc(Oc5ccccc5)cc4)CC3)ncnc2c1` [Compound 312, 4-(7-Methyl-4-quinazolinyl)-N-(4-phenoxyphenyl)-1-piperazinecarboxamide] are 184 to 185 °C and 260 nM.
On the same counts, the results for `COc1cc2ncnc(N3CCN(C(=S)Nc4ccc(N(C)C)cc4)CC3)c2cc1OC` [Compound 71, 4-(6,7-Dimethoxy-4-quinazolinyl)-N-(4-dimethylaminophenyl)-1-piperazinethiocarboxamide] are 226 to 227 °C and 940 nM.
On the same counts, the results for `COc1cc2ncnc(N3CCN(C(=S)NCc4cccc(Cl)c4)CC3)c2cc1OC` [Compound 177, N-(3-Chlorobenzyl)-4-(6,7-dimethoxy-4-quinazolinyl)-1-piperazinethiocarboxamide] are 117 to 119 °C and 770 nM.
In turn, `COc1cc2ncnc(N3CCN(C(=O)NCc4ccc(Cl)cc4)CC3)c2cc1OC` [Compound 178, N-(4-Chlorobenzyl)-4-(6,7-dimethoxy-4-quinazolinyl)-1-piperazinecarboxamide] had a melting point of 203 to 204 °C. On human β-PDGF receptor, this compound showed an IC50 of 410 nM.
Turning to `COc1cc2ncnc(N3CCN(C(=O)Nc4ccc(-n5cccc5)nc4)CC3)c2cc1OC` [Compound 283, 4-(6,7-Dimethoxy-4-quinazolinyl)-N-[2-(1-pyrrolyl)-5-pyridyl]-1-piperazinecarboxamide], the melting point was 252 to 254 °C. For the same compound, 1400 nM corresponded to half-maximal inhibition against human β-PDGF receptor (IC50).
On the same counts, the results for `Cc1ccc2ncnc(N3CCN(C(=O)Nc4ccc(Oc5ccccc5)cc4)CC3)c2c1` [Compound 292, 4-(6-Methyl-4-quinazolinyl)-N-(4-phenoxyphenyl)-1-piperazinecarboxamide] are 244 to 246 °C and 760 nM.
On the same counts, the results for `COc1cc2ncnc(N3CCN(C(=O)Nc4ccc(N=Nc5ccccc5)cc4)CC3)c2cc1OC` [Compound 229, 4-(6,7-Dimethoxy-4-quinazolinyl)-N-(4-phenylazophenyl)-1-piperazinecarboxamide] are 244 to 246 °C and 310 nM.
On the same counts, the results for `O=C(Nc1ccc(Oc2ccccc2)cc1)N1CCN(c2ncnc3cc(Cl)c([N+](=O)[O-])cc23)CC1` [Compound 357, 4-(7-Chloro-6-nitro-4-quinazolinyl)-N-(4-phenoxyphenyl)-1-piperazinecarboxamide] are 190 to 191 °C and 190 nM.
In the case of `COc1cc2ncnc(N3CCN(C(=S)NCc4ccc(C#N)cc4)CC3)c2cc1OC` [Compound 240, N-(4-Cyanobenzyl)-4-(6,7-dimethoxy-4-quinazolinyl)-1-piperazinethiocarboxamide], the melting point lay in the range of 186 to 187 °C. The compound further yielded an IC50 on human β-PDGF receptor of 500 nM.
On the same counts, the results for `O=C(Nc1ccc(Oc2ccccc2)cc1)N1CCN(c2ncnc3ccc(F)cc23)CC1` [Compound 297, 4-(6-Fluoro-4-quinazolinyl)-N-(4-phenoxyphenyl)-1-piperazinecarboxamide] are 186 to 187 °C and 330 nM.
On the same counts, the results for `COc1cc2ncnc(N3CCN(C(=S)Nc4ccc(CNC(=O)OC(C)(C)C)cc4)CC3)c2cc1OC` [Compound 228, N-[4-(N-tert-Butoxycarbonylaminomethyl)phenyl]-4-(6,7-dimethoxy-4-quinazolinyl)-1-piperazinethiocarboxamide] are 123 to 126 °C and 290 nM.
Compound `COc1cc2ncnc(N3CCN(C(=O)NCc4ccc(OC(F)(F)F)cc4)CC3)c2cc1OC` [Compound 203, 4-(6,7-Dimethoxy-4-quinazolinyl)-N-(4-trifluoromethoxybenzyl)-1-piperazinecarboxamide] came in with a melting point of 176 to 177 °C. On human β-PDGF receptor, this compound displayed an IC50 of 1390 nM.
On the same counts, the results for `COc1cc2ncnc(N3CCN(C(=S)NCCc4ccc(Cl)cc4)CC3)c2cc1OC` [Compound 180, N-[2-(4-Chlorophenyl)ethyl]-4-(6,7-dimethoxy-4-quinazolinyl)-1-piperazinethiocarboxamide] are 106 to 109 °C and 1000 nM.
Regarding `O=C(Nc1ccc([N+](=O)[O-])cc1)N1CCN(c2nc(-c3ccccc3)nc3ccccc23)CC1` [Compound 110, 4-(2-Phenyl-4-quinazolinyl)-N-(4-nitrophenyl)-1-piperazinecarboxamide], the melting point was in the range of 236 to 238 °C.
Same read-out and setting: under `COc1cc2ncnc(N3CCN(C(=O)Nc4ccccc4)CC3)c2cc1OC` [Compound 1, 4-(6,7-Dimethoxy-4-quinazolinyl)-N-phenyl-1-piperazinecarboxamide] stands 121 to 123 °C.
For the compound `COc1cc2ncnc(N3CCN(C(=S)NCC4CCCCC4)CC3)c2cc1OC` [Compound 138, N-Cyclohexylmethyl-4-(6,7-dimethoxy-4-quinazolinyl)-1-piperazinethiocarboxamide], the melting point was 170 to 171 °C.
The same measure, in the same setting: under `COc1cc2ncnc(N3CCN(C(=O)NCc4ccccc4)CC3)c2cc1OC` [Compound 3, N-Benzyl-4-(6,7-dimethoxy-4-quinazolinyl)-1-piperazinecarboxamide] stands 167 to 168 °C; under `COc1cc2ncnc(N3CCN(C(=O)Nc4cccc(C)c4)CC3)c2cc1OC` [Compound 144, 4-(6,7-Dimethoxy-4-quinazolinyl)-N-(3-tolyl)-1-piperazinecarboxamide], 218 to 219 °C; under `COc1cc2ncnc(N3CCN(C(=O)Nc4ccc(N(C)C)cc4)CC3)c2cc1OC` [Compound 222, 4-(6,7-Dimethoxy-4-quinazolinyl)-N-(4-dimethylaminophenyl)-1-piperazinecarboxamide], 252 to 254 °C.
On the same count and under the same terms, under `COc1cc2ncnc(N3CCN(C(=S)Nc4cc(O)nc(O)n4)CC3)c2cc1OC` [Compound 277, N-(2,6-Dihydroxy-4-pyrimidinyl)-4-(6,7-dimethoxy-4-quinazolinyl)-1-piperazinethiocarboxamide] stands 283 to 285 °C; under `COc1cc2ncnc(N3CCN(C(=O)Nc4ccccc4[N+](=O)[O-])CC3)c2cc1OC` [Compound 75, 4-(6,7-Dimethoxy-4-quinazolinyl)-N-(2-nitrophenyl)-1-piperazinecarboxamide], 217 to 218 °C.
On the same count and under the same terms, under `O=C(Nc1ccc(Oc2ccccc2)cc1)N1CCN(c2ccnc3cc(Cl)ccc23)CC1` [Compound 115, 4-(7-Chloro-4-quinolyl)-N-(4-phenoxyphenyl)-1-piperazinecarboxamide] stands 159 to 161 °C.
In the case of `CCCCOc1ccc(NC(=O)N2CCN(c3ncnc4cc(OC)c(OC)cc34)CC2)cc1` [Compound 58, N-(4-Butoxyphenyl)-4-(6,7-dimethoxy-4-quinazolinyl)-1-piperazinecarboxamide], the melting point is 213 to 214 °C.
Compound `O=C(Nc1ccc(Oc2ccccc2)cc1)N1CCN(c2ncnc3cc4c(cc23)OCO4)CC1` [Compound 367, 4-(6,7-Methylenedioxy-4-quinazolinyl)-N-(4-phenoxyphenyl)-1-piperazinecarboxamide] showed a melting point of 206 to 207 °C.
